Assay type in all cases: cell-based
For assay [1], the system named is Pseudomonas BRK 12-4-4. Put plainly: Minimal Inhibitory Concentration, Pseudomonas BRK 12-4-4. The settings on record: BRK1244, sodium salt.
Assay [2] relates to Pseudomonas #28. Put plainly: Minimal Inhibitory Concentration, Pseudomonas #28. The settings on record: sodium salt.
Assay [3] has as its system Strep. fec. MGH 2. The assay is described as follows: Minimal Inhibitory Concentration, Strep. fec. MGH 2. To be noted: sodium salt.
Assay [4] concerns Pseudomonas UI 18. The assay is described as follows: Minimal Inhibitory Concentration, Pseudomonas UI 18. The settings on record: UI18, sodium salt.
Assay [5] concerns Klebs. Pneum. MGH 2. Put plainly: Minimal Inhibitory Concentration, Klebs. Pneum. MGH 2. The settings on record: sodium salt.
The subject of assay [6] is E. Coli Brig. The assay is described as follows: Minimal Inhibitory Concentration, E. Coli Brig. The settings on record: Escherichia coli, sodium salt.
For assay [7], the system named is Staph UC76. The assay is described as follows: Minimal Inhibitory Concentration, Staph UC76. The settings on record: sodium salt.
For assay [8], the system named is Staph S 18713. Put plainly: Minimal Inhibitory Concentration, Staph S 18713. The settings on record: sodium salt.
For assay [9], the system named is Serr. Mar. IMM 16. The assay is described as follows: Minimal Inhibitory Concentration, Serr. Mar. IMM 16. To be noted: sodium salt.
In assay [10] the test system is Entero Cloac. IM 11. The assay is described as follows: Minimal Inhibitory Concentration, Entero Cloac. IM 11. To be noted: sodium salt.
For assay [11], the system named is Prot Vulg. The assay is described as follows: Minimal Inhibitory Concentration, Prot Vulg. To be noted: sodium salt.
For assay [12], the system named is E. Coli Vogel. The assay is described as follows: Minimal Inhibitory Concentration, E. Coli Vogel. To be noted: Escherichia coli, sodium salt.

Some results are limits rather than exact numbers.

These results are taken from US4404201A, “Cephalosporins” (Warner-Lambert Company, priority 1981, dated 1983).

As a reminder, the MIC is the lowest concentration found to suppress growth.

As for `CC(=O)N[C@@H](C)C(=O)Nc1ccc2c(=O)c(C(=O)N[C@@H](C(=O)NC3C(=O)N4C(C(=O)O)=C(CSc5nnnn5CS(=O)(=O)O)CSC34)c3ccccc3)c[nH]c2c1` (stereo partly drawn) [Example 1, N-[7-[[L-2-(Acetylamino)-1-oxopropyl]amino]-1,4-dihydro-4-oxo-3-quinolinylcarbonyl]-7-[D-2-amino-2-phenylacetamido]-3-[[(1-sulfomethyl-1H-tetrazol-5-yl)thio]methyl]-3-cephem-4-carboxylic acid], the MIC is 6.3 µg/mL in assay [1]; 3.1 µg/mL in assay [2]; > 50 µg/mL in [3]; 3.1 µg/mL in assay [4]; 0.8 µg/mL in assay [5]; > 50 µg/mL in [6]. Besides, the minimum inhibitory concentration (MIC) in assay [7] is 6.3 µg/mL; in [8] it was 12.5 µg/mL; in [9], 3.2 µg/mL; in assay [10] it was 6.3 µg/mL; in assay [11], 0.8 µg/mL; in assay [12], 0.8 µg/mL.

In the case of `CC(=O)N[C@@H](C)C(=O)Nc1ccc2c(=O)c(C(=O)N[C@@H](C(=O)NC3C(=O)N4C(C(=O)O)=C(CSc5nnnn5C)CSC34)c3ccc(O)cc3)c[nH]c2c1` (stereo partly drawn) [Example 2, N-[7-[[L-2-(Acetylamino)-1-oxopropyl]amino]-1,4-dihydro-4-oxo-3-quinolinylcarbonyl]-7-[D-2-amino-2-(4-hydroxyphenyl)acetamido]-3-[[(1-methyl-1H-tetrazol-5-yl)thio]methyl]-3-cephem-4-carboxylic acid], the minimum inhibitory concentration (MIC) in assay [1] is 3.1 µg/mL; in assay [2] it was 3.1 µg/mL; in [3] it was 25 µg/mL; in assay [4] it was 6.3 µg/mL; in assay [5], 0.4 µg/mL; in assay [6], > 50 µg/mL. Moreover, the MIC in assay [7] is 3.1 µg/mL; in [8], 6.3 µg/mL; in assay [9], 0.3 µg/mL; in assay [10] it was 3.1 µg/mL; in assay [11], 3.1 µg/mL; in [12], 0.4 µg/mL.

With `CC(=O)N[C@@H](C)C(=O)Nc1ccc2c(=O)c(C(=O)N[C@@H](C(=O)NC3C(=O)N4C(C(=O)O)=C(COC(C)=O)CSC34)c3ccc(O)cc3)c[nH]c2c1` (stereo partly drawn) [Example 3, N-[7-[[L-2-(Acetylamino)-1-oxopropyl]amino]-1,4-dihydro-4-oxo-3-quinolinylcarbonyl]-7-[D-2-amino-2-(4-hydroxyphenyl)acetamido]-3-acetoxymethyl-3-cephem-4-carboxylic acid], the MIC stood at 6.3 µg/mL in [1]; 3.1 µg/mL in assay [2]; 25 µg/mL in assay [3]; 3.1 µg/mL in assay [4]; 1.6 µg/mL in assay [5]; 12.5 µg/mL in assay [6]. Moreover, the minimum inhibitory concentration (MIC) was 3.1 µg/mL in [7]; 6.3 µg/mL in [8]; 50 µg/mL in assay [9]; 12.5 µg/mL in [10]; 6.3 µg/mL in assay [11]; 1.6 µg/mL in assay [12].

With `CC(=O)N[C@@H](CCC(N)=O)C(=O)Nc1ccc2c(=O)c(C(=O)N[C@@H](C(=O)NC3C(=O)N4C(C(=O)O)=C(COC(C)=O)CSC34)c3ccc(O)cc3)c[nH]c2c1` (stereo partly drawn) [Example 4, N-[7-[[L-2-(Acetylamino)-5-amino-1,5-dioxopentyl]amino]-1,4-dihydro-4-oxo-3-quinolinylcarbonyl]-7-[D-2-amino-2-(4-hydroxyphenyl)acetamido]-3-acetoxymethyl-3-cephem-4-carboxylic acid], the minimum inhibitory concentration (MIC) in assay [1] is 6.3 µg/mL; in [2] it was 3.1 µg/mL; in [3] it was 25 µg/mL; in assay [4], 12.5 µg/mL; in [5] it was 3.1 µg/mL; in assay [6], > 50 µg/mL. For the same compound, the MIC in [7] is 3.1 µg/mL; in [8], 6.3 µg/mL; in assay [9], > 50 µg/mL; in assay [10], 12.5 µg/mL; in assay [11], 6.3 µg/mL; in assay [12] it was 0.8 µg/mL.

With `CC(=O)N[C@@H](CCC(N)=O)C(=O)Nc1ccc2c(=O)c(C(=O)N[C@@H](C(=O)NC3C(=O)N4C(C(=O)O)=C(CSc5nnnn5C)CSC34)c3ccc(O)cc3)c[nH]c2c1` (stereo partly drawn) [Example 5, N-[7-[[L-2-(Acetylamino)-5-amino-1,5-dioxopentyl]amino]-1,4-dihydro-4-oxo-3-quinolinylcarbonyl]-7-[D-2-amino-2-(4-hydroxyphenyl)acetamido]-3-[[(1-methyl-1H-tetrazol-5-yl)thio]methyl]-3-cephem-4-carboxylic acid], the MIC in assay [1] was 6.3 µg/mL; in assay [2], 3.1 µg/mL; in [3], 25 µg/mL; in assay [4] it was 6.3 µg/mL; in [5], 0.8 µg/mL; in assay [6], > 50 µg/mL. In addition, the minimal inhibitory concentration (MIC) in [7] was determined as 3.1 µg/mL; in [8], 6.3 µg/mL; in assay [9], 6.3 µg/mL; in [10], 3.1 µg/mL; in [11] it was 3.1 µg/mL; in assay [12] it was 0.4 µg/mL.

With `Cn1nnnc1SCC1=C(C(=O)O)N2C(=O)C(NC(=O)[C@H](NC(=O)c3c[nH]c4cc(NC(=O)[C@@H]5CCC(=O)N5)ccc4c3=O)c3ccccc3)C2SC1` (stereo partly drawn) [Example 6, N-[1,4-Dihydro-4-oxo-7-[[(L-5-oxo-2-pyrrolidinyl)carbonyl]amino]-3-quinolinylcarbonyl]-7-[D-2-amino-2-phenylacetamido]-3-[[(1-methyl-1H-tetrazol-5-yl)thio]methyl]-3-cephem-4-carboxylic acid], the minimum inhibitory concentration (MIC) amounted to 12.5 µg/mL in [1]; 6.3 µg/mL in assay [2]; 12.5 µg/mL in assay [4]; 1.6 µg/mL in [5]; 6.3 µg/mL in assay [6]; 0.8 µg/mL in [7]. The minimal inhibitory concentration (MIC) in assay [8] turned out to be 3.1 µg/mL; in [9], 25 µg/mL; in assay [10], 6.3 µg/mL; in assay [11] it was 6.3 µg/mL; in assay [12] it was 0.8 µg/mL.

In the case of `CC(=O)N[C@@H](C)C(=O)Nc1ccc2[nH]cc(C(=O)N[C@@H](C(=O)NC3C(=O)N4C(C(=O)O)=C(CSc5nnnn5C)CSC34)c3ccccc3)c(=O)c2c1` (stereo partly drawn) [Example 7, N-[6-[[L-2-(Acetylamino)-1-oxopropyl]amino]-1,4-dihydro-4-oxo-3-quinolinylcarbonyl]-7-[D-2-amino-2-phenylacetamido]-3-[[(1-methyl-1H-tetrazol-5-yl)thio]methyl]-3-cephem-4-carboxylic acid], the minimal inhibitory concentration (MIC) in assay [1] is 12.5 µg/mL; in assay [2], 6.3 µg/mL; in assay [4], 6.3 µg/mL; in assay [5] it was 3.1 µg/mL; in [6] it was 12.5 µg/mL; in assay [7] it was 1.6 µg/mL. The minimum inhibitory concentration (MIC) in [8] amounted to 6.3 µg/mL; in assay [9], 25 µg/mL; in assay [10] it was 12.5 µg/mL; in [11], 3.1 µg/mL; in assay [12], 1.6 µg/mL.

Regarding `CC(=O)N[C@@H](C)C(=O)Nc1ccc2[nH]c(=O)c(C(=O)N[C@@H](C(=O)NC3C(=O)N4C(C(=O)O)=C(COC(C)=O)CSC34)c3ccc(O)cc3)cc2c1` (stereo partly drawn) [Example 8, N-[6-[[L-2-(Acetylamino)-1-oxopropyl]amino]-1,2-dihydro-2-oxo-3-quinolinylcarbonyl]-7-[D-2-amino-2-(4-hydroxyphenyl)acetamido]-3-acetoxymethyl-3-cephem-4-carboxylic acid], the MIC turned out to be 6.3 µg/mL in assay [1]; 3.1 µg/mL in [2]; 3.1 µg/mL in assay [4]; 25 µg/mL in assay [5]; 50 µg/mL in [6]; 3.1 µg/mL in assay [7]. Also, the MIC in assay [8] is 6.3 µg/mL; in [9] it was > 50 µg/mL; in assay [10], 25 µg/mL; in assay [11], 25 µg/mL; in assay [12] it was 6.3 µg/mL.
